Key:
[1] = test system: amphetamine-induced hyperlocomotion in male Sprague-Dawley rats; experiment: Reversal of amphetamine-induced hyperlocomotion (rat hyperlocomotion assay); type: in vivo; settings: vehicle 20% HP-β-CD
Method: A suitable assay for determination of the in vivo effects of the disclosed compounds is the induced hyperlocomotion animal model. Briefly, locomotor activity can be assessed as mean distance traveled (cm) in standard 16×16 photocell testing chambers measuring 43.2 cm (Length)×43.2 cm (Width)×30.5 cm (Height) (Med Associates, St. Albans, Vt.). Animals are habituated to individual activity chambers for at least 30 min prior to drug administration. Following administration of drug or vehicle, activity is recorded for a 90 minute time period. Data are expressed as the mean (±SEM) distance traveled recorded in 5 min intervals over the test period. The data are analyzed using repeated measures analysis of variance (ANOVA) followed by post-hoc testing using Dunnett's test, when appropriate. A difference is considered significant when p≦0.05.
The study was carried out using male Sprague-Dawley rats weighing 225 g-275 g, between 2-3 months old (Harlan, Inc., Indianapolis, Ind.). They were kept in the animal care facility certified by the American Association for the Accreditation of Laboratory Animal Care (AALAC) under a 12-hour light/dark cycle (lights on: 6 a.m.; lights off: 6 p.m.) and had free access to food and water. The experimental protocols performed during the light cycle were approved by the Institutional Animals Care and Use Committee of Vanderbilt University and conformed to the guidelines established by the National Research Council Guide for the Care and Use of Laboratory Animals
Locomotor activity was assessed as mean distance traveled (cm) in Smart Open Field locomotor activity test chambers (Hamilton-Kinder, San Diego, Calif.) with 16×16 photobeams with chambers measuring 43.2 cm (Length)×43.2 cm (Width)×30.5 cm (Height) (Med Associates, St. Albans, Vt.). The animals were habituated for 30 min and then dosed with vehicle or test compound. The rats were then placed into cages. At 60 min, all rats were injected subcutaneously with 1 mg/kg amphetamine or vehicle and then monitored for an additional 60 min. Animals are monitored for a total of 120 minutes.
Data are expressed as the mean (±SEM) distance traveled recorded in 5 min intervals over the test period. The data was analyzed using repeated measures analysis of variance (ANOVA) followed by post-hoc testing using Dunnett's test, when appropriate. A difference was considered significant when p≦0.05. The data for the dose-response studies were analyzed by a between-group analysis of variance. If there was a main effect of dose, then each dose group was compared with the vehicle amphetamine group. The calculations were performed using JMP IN 8 (SAS Institute, Cary, N.C.) statistical software and graphed using SigmaPlot9 (Saugua, Mass.).
Amphetamine sulfate was obtained from Sigma (Cat #A5880-1G; St. Louis, Mo.) and 10 mg was dissolved in 10 ml of water. Test compound, 2-(benzyloxy)-5-[(4-fluorophenyl)carbonyl]-4,5,6,7-tetrahydropyrazolo[1,5-a]pyrazine, was formulated in a volume of 10 ml with an amount of drug appropriate to the dosage indicated. The appropriate amount of compound was mixed into a 20% 2-hydroxypropyl-β-cyclodextrin (2-HP-β-CD) solution. The solution was formulated so that animals were injected with a volume equal to […]. The mixture was then ultrahomogenized on ice for 2-3 minutes using the Dismembrator (Fisher Scientific Model 150T). Then the pH was checked using 0-14 EMD strips and adjusted to a pH of 6-7 if necessary. […]

O=C(c1ccc(F)cc1)N1CCn2nc(OCc3ccccc3)cc2C1 [test compound, 2-(benzyloxy)-5-[(4-fluorophenyl)carbonyl]-4,5,6,7-tetrahydropyrazolo[1,5-a]pyrazine]
% Reversal of amphetamine-induced hyperlocomotion ([1]; 3 mg/kg test compound p.o. + 1 mg/kg Amph s.c.): 14% | % Reversal of amphetamine-induced hyperlocomotion ([1]; 10 mg/kg test compound p.o. + 1 mg/kg Amph s.c.): 32% | % Reversal of amphetamine-induced hyperlocomotion ([1]; 30 mg/kg test compound p.o. + 1 mg/kg Amph s.c.): 44% | % Reversal of amphetamine-induced hyperlocomotion ([1]; 56.6 mg/kg test compound p.o. + 1 mg/kg Amph s.c.): 42% | % Reversal of amphetamine-induced hyperlocomotion ([1]; 100 mg/kg test compound p.o. + 1 mg/kg Amph s.c.): 41% | melting point: 187.7 °C

Source: US9029366B2, “Substituted bicyclic alkoxy pyrazole analogs as allosteric modulators of mGluR5 receptors” (Vanderbilt University, priority 2012, dated 2015)
